Results published in US20130122541A1, “MICROORGANISM PRODUCTION OF HIGH-VALUE CHEMICAL PRODUCTS, AND RELATED COMPOSITIONS, METHODS AND SYSTEMS” (The Regents of the University of Colorado, priority 2010, published 2013).
Read-outs that look alike come from different tables or passages of the source.

Tested on: E. coli
Assay: microbe, parasite or virus in culture
Format: cell-based
Details: for MIC: Escherichia coli, BW25113, read-out: MIC Assay Result (g/L 3-HP), aerobic; for % Increase Over Control: aerobic
Experimental: For MIC evaluations, the final results are expressed in chemical agent concentrations determined by analysis of the stock solution by HPLC (i.e., see Subsection IIIb).
The minimum inhibitory concentration (MIC) was determined aerobically in a 96 well-plate format. […] Media supplements were added according to levels reported in the Supplements Table, where specified. Overnight cultures of strains were grown in triplicate in 5 mL LB (with antibiotic where appropriate). A 1% (v/v) inoculum was introduced into a 5 ml culture of M9 minimal media.

O=C(O)CCO [3-HP, 3-hydroxypropionic acid]
30 g/L: MIC (strain BX_00302.0: BW25113 wild type, pSmart-LC-Kan-folA-ORF, M9 + Kan 20 μg/mL) | MIC (strain BX_00313.0: BW25113 wild type, pSmart-LC-Kan-folD, M9 + Kan 20 μg/mL) | MIC (strain BX_00319.0: BW25113 wild type, pK223-aroH, M9 + Amp 100 μg/mL + 1 mM IPTG) | MIC (strain BX_00356.0: BW25113 wild type, pSmart-HC-Amp-LysA, M9 + Amp 100 μg/mL) | MIC (strain BX_00357.0: BW25113 wild type, pKK223-aroH*445, M9 + Amp 100 μg/mL + 1 mM IPTG) | MIC (strain BX_00362.0: BW25113 wild type, pACYC177 (Kan only)-aroH, M9 + Kan 20 μg/mL + 1 mM IPTG) | MIC (strain BX_00368.0: BW25113 wild type, pBT-3-cynTS, M9 + Cm (20 μg/mL)) | MIC (strain BX_00370.0: BW25113 wild type, pBT-3-speB, M9 + Cm (20 μg/mL))
35 g/L: MIC (strain BX_00300.0: BW25113 wild type, pSmart-LC-Kan-tyrA-aroF, M9 + Kan 20 μg/mL) | MIC (strain BX_00305.0: BW25113 wild type, pSmart-LC-Kan-pheA-C1, M9 + Kan 20 μg/mL) | MIC (strain BX_00307.0: BW25113 wild type, pSmart-LC-Kan-tyrA-C1, M9 + Kan 20 μg/mL) | MIC (strain BX_00309.0: BW25113 wild type, pSmart-LC-Kan-cynTS, M9 + Kan 20 μg/mL) | MIC (strain BX_00310.0: BW25113 wild type, pSmart-LC-Kan-glyA, M9 + Kan 20 μg/mL) | MIC (strain BX_00312.0: BW25113 wild type, pSmart-LC-Kan-serA, M9 + Kan 20 μg/mL) | MIC (strain BX_00314.0: BW25113 wild type, pSmart-LC-Kan-aroE, M9 + Kan 20 μg/mL) | MIC (strain BX_00315.0: BW25113 wild type, pSmart-LC-Kan-aroKB C1, M9 + Kan 20 μg/mL) | MIC (strain BX_00317.0: BW25113 wild type, pSmart-LC-Kan-ilvA operon, M9 + Kan 20 μg/mL) | MIC (strain BX_00318.0: BW25113 wild type, pSmart-LC-Kan-cysM, M9 + Kan 20 μg/mL) | MIC (strain BX_00322.0: BW25113 wild type, pJ61-speFED, M9 + Kan 20 μg/mL) | MIC (strain BX_00323.0: BW25113 wild type, pJ61-aroG, M9 + Kan 20 μg/mL) | MIC (strain BX_00324.0: BW25113 wild type, pJ61-thrA, M9 + Kan 20 μg/mL) | MIC (strain BX_00325.0: BW25113 wild type, pJ61-asd, M9 + Kan 20 μg/mL) | MIC (strain BX_00326.0: BW25113 wild type, pJ61-ilvA, M9 + Kan 20 μg/mL) | MIC (strain BX_00327.0: BW25113 wild type, pJ61-cysM, M9 + Kan 20 μg/mL) | MIC (strain BX_00335.0: BW25113 wild type, pSmart-HC-Amp-prs, M9 + Amp 100 μg/mL) | MIC (strain BX_00336.0: BW25113 wild type, pSmart-HC-Amp-nrdAB, M9 + Amp 100 μg/mL) | MIC (strain BX_00337.0: BW25113 wild type, pSmart-HC-Amp-nrdEF, M9 + Amp 100 μg/mL) | MIC (strain BX_00352.0: BW25113 wild type, pSmart-LC-Kan-metC C1, M9 + Amp 100 μg/mL) | MIC (strain BX_00359.0: BW25113 wild type, pKK223-aroH*457, M9 + Amp 100 μg/mL + 1 mM IPTG) | MIC (strain BX_00361.0: BW25113 wild type, pACYC177 (Kan only)-cynTS, M9 + Kan 20 μg/mL) | MIC (strain BX_00363.0: BW25113 wild type, pACYC177 (kan only)-speB, M9 + Kan 20 μg/mL) | MIC (strain BX_00364.0: BW25113 wild type, pACYC177 (Kan only)-metE (Version1) (SS090608_13), M9 + Kan 20 μg/mL + 1 mM IPTG) | MIC (strain BX_00365.0: BW25113 wild type, pACYC177 (Kan only)-metC (Version1) (SS090608_17), M9 + Kan 20 μg/mL)
27.5 g/L: MIC (strain BW25113, no modifications (control), M9)
45 g/L: MIC (strain BX_00353.0: BW25113 wild type, pSmart-HC-Amp-metC, M9 + Amp 100 μg/mL) | MIC (strain BX_00354.0: BW25113 wild type, pSmart-HC-Amp-cynTS, M9 + Amp 100 μg/mL)
40%: % Increase Over Control (strain BX_00301.0 (pSmart-LC-Kan-folA-C1))
25 g/L: MIC (strain BX_00003.0: BW25113 wild type, pBT-3 (control), M9 + Cm (20 μg/mL)) | MIC (strain BX_00118.0: BW25113 wild type, pJ251 (control), M9 + Kan (20 μg/mL)) | MIC (strain BX_00138.0: BW25113 wild type, pSmart-LC-Kan (control), M9 + Kan (20 μg/mL)) | MIC (strain BX_00144.0: BW25113 wild type, pSmart-HC-Amp (control), M9 + Amp (100 μg/mL))
20%: % Increase Over Control (strain BX_00302.0 (pSmart-LC-Kan-folA-ORF))
20 g/L: MIC (strain BX_00002.0: BW25113 wild type, pKK223-mcs1 (control), M9 + Amp (100 μg/mL)) | MIC (strain BX_00142.0: BW25113 wild type, pSmart-LC-kan, pBT-3 (control), M9 + Kan (20 μg/mL), Cm (20 μg/mL))
